Source: patent publication US20200222347A1, “ANTIMICROBIALS AND METHODS OF USE THEREOF” (priority 2013, published 2020)
Several values for one entry are separate records, joined by “and”; a condition that tells them apart may be missing. Equal entries are not always repeated.

How the values were obtained:
P. aeruginosa = test: Kirby-Bauer disc diffusion antimicrobial susceptibility; type: cell-based, Pseudomonas aeruginosa; conditions: 100 mM, carrier water; 18-24 hours for aerobes
C difficile = test: as above; type: cell-based; conditions: 100 mM, carrier water; 48 hours for anaerobes
all bacteria tested = test: In vitro antimicrobial susceptibility, whole panel; type: cell-based
S. mutans = test: Kirby-Bauer disc diffusion antimicrobial susceptibility; type: cell-based; conditions: 100 mM, carrier water
S. aureus 33591 (MRSA) = test: as above; type: cell-based, Staphylococcus aureus; conditions: 100 mM, carrier water; 18-24 hours for aerobes
S. aureus 6538 = test: as above; type: cell-based; conditions: 100 mM, carrier water; 18-24 hours for aerobes
C. perfringens = type: cell-based; conditions: 100 mM, carrier water
S. pyogenes = test: Kirby-Bauer disc diffusion antimicrobial susceptibility; type: cell-based; conditions: 100 mM, carrier water
[1] = system: Aureobasidium pullulans, ATCC 15233; test: In vitro test of 2, 4, 6 Trihydroxybenzaldehyde against a fungi; type: cell-based; conditions: 100 mM
Legionella 43662 = type: cell-based
[2] = system: E. coli, ATTC 8739 and ATCC 43895; test: Kirby-Bauer disc diffusion antimicrobial susceptibility; type: cell-based; conditions: 100 mM, carrier water; 18-24 hours for aerobes
[3] = system: Staphylococcus epidermidis ATCC 51625 (MRSE); test: In vitro antimicrobial test (FIG. 32); type: cell-based
[4] = system: Staphylococcus aureus ATCC33591 (MRSA); test: Paper disc test with water or propylene glycol, Example 10
K. pneumoniae = test: Kirby-Bauer disc diffusion antimicrobial susceptibility; type: cell-based; conditions: 100 mM, carrier water; 18-24 hours for aerobes
[5] = system: Pseudomonas aeruginosa ATCC9027; test: Paper disc test with water or propylene glycol, Example 10

For `CC1(C)S[C@@H]2[C@H](NC(=O)[C@H](N)c3ccc(O)cc3)C(=O)N2[C@H]1C(=O)O` [Amoxicillin, amoxicillin, reference compound], the “effectiveness against P. aeruginosa” value (P. aeruginosa) was “no effect”.
`Oc1cc(O)c2cc(O)c(-c3ccc(O)c(O)c3)[o+]c2c1.[Cl-]` [Cyanidin CI, cyanidin chloride] was tested, and the “effectiveness against C. difficile (growth inhibition)” value (C difficile) was “effective”, the “antibiotic properties (summary)” value (all bacteria tested) was “limited antibiotic properties” and the “effectiveness against S. mutans” value (S. mutans) was “effective”. For the same compound, the “effectiveness against S. aureus 33591 (MRSA)” value (S. aureus 33591 (MRSA)) was “effective”, the “effectiveness against S. aureus 6538” value (S. aureus 6538) was “effective” and the “effectiveness against C. perfringens (growth inhibition)” value (C. perfringens) was “effective”. For the same compound, the “effectiveness against S. pyogenes” value (S. pyogenes) was “effective”.
With `O=C(O)CNC(=O)c1ccccc1` [hippuric acid] the “antibiotic properties (summary)” value (all bacteria tested) was “little activity”.
For `COc1cc(C(=O)O)ccc1O` [vanillic acid], the “antibiotic properties (summary)” value (all bacteria tested) was “little activity”.
For `O=Cc1c(O)cc(O)cc1O` [2, 4, 6 Trihydroxybenzaldehyde, 2, 4, 6 trihydroxybenzaldehyde], the “effectiveness against P. aeruginosa” value (P. aeruginosa) was “effective”, the “antibiotic properties (summary)” value (all bacteria tested) was “broad spectrum antibiotic” and the “effectiveness against A. pullulans, a fungi” value [1] was “effective”. The “effectiveness against Legionella 43662” value (Legionella 43662) was “effective”, the “effectiveness against E. coli” value [2] was “effective” and the “effectiveness against MRSE ATCC 51625” value [3] was “effective”. For the same compound, the “inhibition of growth under the sample” value ([4]; PPG) was “I”, the zone of inhibition ([4]; PPG) was 12 mm and the “inhibition of growth under the sample” value ([4]; Water) was “I”. For the same compound, the zone of inhibition ([4]; Water, listed as 246 THBA) was 14 mm and 15 mm, the “effectiveness against K. pneumoniae” value (K. pneumoniae) was “effective” and the “effectiveness against S. aureus 33591 (MRSA)” value (S. aureus 33591 (MRSA)) was “effective”. For the same compound, the “effectiveness against S. aureus 6538” value (S. aureus 6538) was “effective”, the “inhibition of growth under the sample” value ([5]; PPG) was “I” and the zone of inhibition ([5]; PPG) was 3 mm. For the same compound, the “inhibition of growth under the sample” value ([5]; Water) was “I” and the zone of inhibition ([5]; Water, listed as 246 THBA) was 2 mm and 3 mm.
